Some results are limits rather than exact numbers.

A word on the DC50: it is the concentration giving 50% degradation.

One experiment has as its target T1, ER (Homo sapiens, UniProt P03372).
T1 construct: host or cells: T47D and MCF7 human breast cancer cells
T1 sequence (P03372 1-595): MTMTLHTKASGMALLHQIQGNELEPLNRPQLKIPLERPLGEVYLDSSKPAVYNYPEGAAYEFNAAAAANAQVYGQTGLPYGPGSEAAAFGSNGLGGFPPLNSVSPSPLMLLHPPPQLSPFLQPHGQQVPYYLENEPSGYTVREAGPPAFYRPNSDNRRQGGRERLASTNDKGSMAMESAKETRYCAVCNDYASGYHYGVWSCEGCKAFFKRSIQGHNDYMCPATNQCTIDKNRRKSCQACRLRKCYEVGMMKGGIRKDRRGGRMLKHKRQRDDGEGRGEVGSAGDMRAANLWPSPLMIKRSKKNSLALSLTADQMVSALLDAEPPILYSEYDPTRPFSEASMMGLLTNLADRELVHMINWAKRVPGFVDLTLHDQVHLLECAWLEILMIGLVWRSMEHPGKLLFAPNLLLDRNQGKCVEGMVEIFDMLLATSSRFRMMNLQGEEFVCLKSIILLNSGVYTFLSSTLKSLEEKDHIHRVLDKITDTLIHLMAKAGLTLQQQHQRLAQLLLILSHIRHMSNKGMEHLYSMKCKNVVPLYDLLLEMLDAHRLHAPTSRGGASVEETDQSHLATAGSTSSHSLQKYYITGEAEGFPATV
In words: ER degradation activity, in-cell western blot analysis in T47D cells. It is filed as cell-based. To be noted: 16 hours, Table A does not say which cell line (T47D or MCF7), read-out: Potency (DC50). The method in brief:
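Read-out is near-infrared fluorescence from an in-cell western, expressed as ER percentage relative to untreated and DMSO controls taken as 100%. T47D breast cancer cells received compound for 16 h in 0.5% DMSO.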
Turning to `C[C@@H]1Cc2c([nH]c3ccccc23)[C@@H](c2c(F)cc(N3CCCC4(CN(C(=O)CN5Cc6cc7c(cc6C5)C(=O)N(C5CCC(=O)NC5=O)C7=O)C4)C3)cc2F)N1CC(F)F` (stereo partly drawn) [E 81, 6-(2-(6-(4-((1R,3R)-2-(2,2-difluoroethyl)-3-methyl-2,3,4,9-tetrahydro-1H-pyrido[3,4-b]indol-1-yl)-3,5-difluorophenyl)-2,6-diazaspiro[3.5]nonan-2-yl)-2-oxoethyl)-2-(2,6-dioxopiperidin-3-yl)-6,7-dihydropyrrolo[3,4-f]isoindole-1,3(2H,5H)-dione], the half-maximal degradation concentration (DC50) was 10 to 100 nM.

`C[C@@H]1Cc2c([nH]c3ccccc23)[C@@H](c2c(F)cc(N3CC(C(=O)N4CCC(N5Cc6cc7c(cc6C5)C(=O)N(C5CCC(=O)NC5=O)C7=O)CC4)C3)cc2F)N1CC(F)F` (stereo partly drawn) [E 236, 6-(1-(1-(4-((1R,3R)-2-(2,2-difluoroethyl)-3-methyl-2,3,4,9-tetrahydro-1H-pyrido[3,4-b]indol-1-yl)-3,5-difluorophenyl)azetidine-3-carbonyl)piperidin-4-yl)-2-(2,6-dioxopiperidin-3-yl)-6,7-dihydropyrrolo[3,4-f]isoindole-1,3(2H,5H)-dione]: the DC50 was above 100 nM. The same measure, in the same setting: to `O=C1CCC(N2C(=O)c3cc4c(cc3C2=O)CN(CC(=O)N2CC3(CCC(Oc5ccc([C@@H]6c7ccc(O)cc7CC[C@@H]6c6ccccc6)cc5)CC3)C2)C4)C(=O)N1` (stereo partly drawn) [E 223, 2-(2,6-dioxopiperidin-3-yl)-6-(2-(7-(4-((1R,2S)-6-hydroxy-2-phenyl-1,2,3,4-tetrahydronaphthalen-1-yl)phenoxy)-2-azaspiro[3.5]nonan-2-yl)-2-oxoethyl)-6,7-dihydropyrrolo[3,4-f]isoindole-1,3(2H,5H)-dione] belongs above 100 nM; to `C[C@@H]1Cc2c([nH]c3ccccc23)[C@@H](c2c(F)cc(N3CC4(CC(C(=O)N5CCC(N6Cc7cc8c(cc7C6)C(=O)N(C6CCC(=O)NC6=O)C8=O)CC5)C4)C3)cc2F)N1CC(F)F` (stereo partly drawn) [E 116, 6-(1-(2-(4-((1R,3R)-2-(2,2-difluoroethyl)-3-methyl-2,3,4,9-tetrahydro-1H-pyrido[3,4-b]indol-1-yl)-3,5-difluorophenyl)-2-azaspiro[3.3]heptane-6-carbonyl)piperidin-4-yl)-2-(2,6-dioxopiperidin-3-yl)-6,7-dihydropyrrolo[3,4-f]isoindole-1,3(2H,5H)-dione], below 10 nM; to `O=C1CCC(N2C(=O)c3cc4c(cc3C2=O)CCN(C(=O)CN2CC3(CCN(c5ccc([C@@H]6c7ccc(O)cc7CC[C@@H]6c6ccccc6)cc5)CC3)C2)CC4)C(=O)N1` (stereo partly drawn) [E 170, 2-(2,6-dioxopiperidin-3-yl)-7-(2-(7-(4-((1R,2S)-6-hydroxy-2-phenyl-1,2,3,4-tetrahydronaphthalen-1-yl)phenyl)-2,7-diazaspiro[3.5]nonan-2-yl)acetyl)-6,7,8,9-tetrahydroazepino[4,5-f]isoindole-1,3(2H,5H)-dione], above 100 nM. On the same count and under the same terms, with `O=C1CCC(N2Cc3cc4c(cc3C2=O)CN(C(=O)[C@H]2CC[C@H](N3CC(Oc5ccc([C@@H]6c7ccc(O)cc7CC[C@@H]6c6ccccc6)cc5)C3)CC2)C4)C(=O)N1` (single isomer, unassigned) [E 357] the figure was below 10 nM; with `C[C@@H]1Cc2c([nH]c3ccccc23)[C@@H](c2c(F)cc(N3CC4(CCN(CC(=O)N5Cc6cc7c(cc6C5)C(=O)N(C5CCC(=O)NC5=O)C7=O)CC4)C3)cc2F)N1CC(F)F` (stereo partly drawn) [E 97, 6-(2-(2-(4-((1R,3R)-2-(2,2-difluoroethyl)-3-methyl-2,3,4,9-tetrahydro-1H-pyrido[3,4-b]indol-1-yl)-3,5-difluorophenyl)-2,7-diazaspiro[3.5]nonan-7-yl)acetyl)-2-(2,6-dioxopiperidin-3-yl)-6,7-dihydropyrrolo[3,4-f]isoindole-1,3(2H,5H)-dione], 10 to 100 nM. The same measure, in the same setting: to `O=C1CCC(N2C(=O)c3cc4c(cc3C2=O)CCN(CC(=O)N2CC3(CCN(c5ccc([C@@H]6c7ccc(O)cc7CC[C@@H]6c6ccccc6)cc5)CC3)C2)CC4)C(=O)N1` (stereo partly drawn) [E 169, 2-(2,6-dioxopiperidin-3-yl)-7-(2-(7-(4-((1R,2S)-6-hydroxy-2-phenyl-1,2,3,4-tetrahydronaphthalen-1-yl)phenyl)-2,7-diazaspiro[3.5]nonan-2-yl)-2-oxoethyl)-6,7,8,9-tetrahydroazepino[4,5-f]isoindole-1,3(2H,5H)-dione] belongs above 100 nM.

The experiment is the same for the next values; noted with them: compounds 16 hours, Table A does not say whether T47D or MCF7, read-out: Potency (DC50).
In the case of `C[C@@H]1Cc2c([nH]c3ccccc23)[C@@H](c2cnc(N3CCC4(CC3)CC(CN3Cc5cc6c(cc5C3)C(=O)N(C3CCC(=O)NC3=O)C6=O)C4)nc2)N1CC(C)(C)F` (stereo partly drawn) [E 473, 2-(2,6-dioxopiperidin-3-yl)-6-((7-(5-((1R,3R)-2-(2-fluoro-2-methylpropyl)-3-methyl-2,3,4,9-tetrahydro-1H-pyrido[3,4-b]indol-1-yl)pyrimidin-2-yl)-7-azaspiro[3.5]nonan-2-yl)methyl)-6,7-dihydropyrrolo[3,4-f]isoindole-1,3(2H,5H)-dione], the DC50 was in the range of 10 to 100 nM.

`C[C@@H]1Cc2cc(O)ccc2[C@@H](c2c(F)cc(N3CCC(C(=O)N4CCC(N5Cc6cc7c(cc6C5)C(=O)N(C5CCC(=O)NC5=O)C7=O)CC4)CC3)cc2F)N1CC(F)F` (stereo partly drawn) [E 463, 6-(1-(1-(4-((1S,3R)-2-(2,2-difluoroethyl)-6-hydroxy-3-methyl-1,2,3,4-tetrahydroisoquinolin-1-yl)-3,5-difluorophenyl)piperidine-4-carbonyl)piperidin-4-yl)-2-(2,6-dioxopiperidin-3-yl)-6,7-dihydropyrrolo[3,4-f]isoindole-1,3(2H,5H)-dione]: the DC50 is below 10 nM. Still for that read-out and setting: with `C[C@@H]1Cc2c(ccc3[nH]ncc23)[C@@H](c2ccc(N3CCC4(CCN(C(=O)CN5Cc6cc7c(cc6C5)C(=O)N(C5CCC(=O)NC5=O)C7=O)CC4)CC3)cn2)N1CC(F)(F)F` (stereo partly drawn) [E 413, 2-(2,6-dioxopiperidin-3-yl)-6-(2-(9-(6-((6S,8R)-8-methyl-7-(2,2,2-trifluoroethyl)-6,7,8,9-tetrahydro-3H-pyrazolo[4,3-f]isoquinolin-6-yl)pyridin-3-yl)-3,9-diazaspiro[5.5]undecan-3-yl)-2-oxoethyl)-6,7-dihydropyrrolo[3,4-f]isoindole-1,3(2H,5H)-dione] the figure was below 10 nM; with `O=C1CCC(N2C(=O)c3cc4c(cc3C2=O)CN(C2CC3CCC(C2)N3CC2CCN(c3ccc([C@@H]5c6ccc(O)cc6CC[C@@H]5c5ccccc5)cc3)CC2)C4)C(=O)N1` (stereo partly drawn) [E 497, 2-(2,6-dioxopiperidin-3-yl)-6-(8-((1-(4-((1R,2S)-6-hydroxy-2-phenyl-1,2,3,4-tetrahydronaphthalen-1-yl)phenyl)piperidin-4-yl)methyl)-8-azabicyclo[3.2.1]octan-3-yl)-6,7-dihydropyrrolo[3,4-f]isoindole-1,3(2H,5H)-dione], above 100 nM.

Consider `COc1c2c(cc3c1CN(C1CCC(=O)NC1=O)C3=O)CN(CC(=O)N1CCC3(CC1)CCN(c1cc(F)c([C@@H]4c5[nH]c6ccccc6c5C[C@@H](C)N4CC(F)F)c(F)c1)CC3)C2` (stereo partly drawn) [E 444, 3-(6-(2-(9-(4-((1R,3R)-2-(2,2-difluoroethyl)-3-methyl-2,3,4,9-tetrahydro-1H-pyrido[3,4-b]indol-1-yl)-3,5-difluorophenyl)-3,9-diazaspiro[5.5]undecan-3-yl)-2-oxoethyl)-4-methoxy-1-oxo-3,5,6,7-tetrahydropyrrolo[3,4-f]isoindol-2(1H)-yl)piperidine-2,6-dione], for which the DC50 is below 10 nM.

The values above are taken from US20240190880A1 (THE REGENTS OF THE UNIVERSITY OF MICHIGAN, priority 2021, published 2024).
